Measurements from article PMC4458427 (Journal of controlled release : official journal of the …, 2015).
pIC50: −log10 of the molar value. Where two headings read alike, the source gives them in different places. Where a SMILES comes first, the peptide text is derived from it.

Key:
[1] = tested on: NCI/ADR-RES (multi-drug resistant ovarian adenocarcinoma) cells; assay: cells; format: cell-based; details: 72 h
[2] = human; cited from earlier work
[3] = mouse, in vivo, 1 mg/kg
[4] = tested on: A549 (lung carcinoma) cells; assay: MTT cytotoxicity, A549; format: cell-based; details: Homo sapiens, A549, 72 h
[5] = mouse; cited from earlier work

## CC(C)[C@H](NC(=O)[C@H](CCCCN)NC(=O)[C@@H](NC(=O)[C@H](CCCCN)NC(=O)[C@@H](NC(=O)[C@H](CCCCN)NC(=O)[C@@H](NC(=O)[C@@H]1CCCN1C(=O)[C@H]1CCCN1C(=O)[C@@H](NC(=O)[C@H](CCCCN)NC(=O)[C@@H](NC(=O)[C@H](CCCCN)NC(=O)[C@@H](NC(=O)[C@H](CCCCN)NC(=O)[C@@H](NC(=O)[C@@H](N)CCCCN)C(C)C)C(C)C)C(C)C)C(C)C)[C@@H](C)O)C(C)C)C(C)C)C(=O)N[C@@H](CCCCN)C(N)=O [SVS-1] (HELM PEPTIDE1{K.V.K.V.K.V.K.V.[dP].P.T.K.V.K.V.K.V.K.[am]}$$$$V2.0)
[1]
  pIC50: 5.49

## YGRKKRRQRRR-NH2 [TAT]
[2]
  reported half-life: 3.5 min

## CC(=O)O[C@H]1C(=O)[C@@]2(C)[C@H]([C@H](OC(=O)c3ccccc3)[C@]3(O)C[C@H](OC(=O)[C@H](O)[C@@H](NC(=O)c4ccccc4)c4ccccc4)C(C)=C1C3(C)C)[C@]1(OC(C)=O)CO[C@@H]1C[C@@H]2O [PTX, Paclitaxel]
[3]
  tolerability at maximum soluble concentration: well tolerated
[4]
  pIC50: 8.44
[1]; Homo sapiens, NCI/ADR-RES
  pIC50: 5.01
[1]; NCI/ADR-RES, MTT
  decrease in activity compared to the peptide conjugate: ~2 fold

## KKVVFKVKFKK-NH2 [KSLK]
[5]
  reported half-life: 6 min
